Experimental findings from patent US11648248B1 (King Abdulaziz University, priority 2022, dated 2023) are described below.

The subject of one assay is Gram-positive bacteria. The assay is described as follows: Bacteriostatic or bactericidal by MBC versus MIC. In kind it is cell-based. Conditions: MBC less than or at least three-fold the MIC. The text has this: Based upon the initial results obtained, the active compounds were further screened against additional clinical isolates of methicillin-sensitive S. aureus (MSSA), methicillin-resistant S. aureus (MRSA), vancomycin-resistant S. aureus (VRSA), Staphylococcus epidermidis, vancomycin-resistant Enterococcus faecium (VRE), vancomycin-resistant Enterococcus faecalis (VRE) and Streptococcus pneumoniae, as presented in Table 2. Additionally, we examined whether the compounds were bacteriostatic (inhibit bacteria from growing) or bactericidal (kill bacteria) by determining the minimum bactericidal concentration (MBC). The MBC was determined by plating 5 μL from each well where no growth was present (in the MIC plates) onto tryptic soya agar plates and incubating plates at 37° C. for 24 hours. The MBC was categorized as the lowest concentration that generated a 99.9% reduction in bacterial colony-forming units (Table 3).

The test system of a further assay is Gram-positive strains. The assay is described as follows: Relative MIC compared to reference drugs (FIG. 3). In kind it is cell-based. An excerpt:
FIG. 3. Relative MIC of MY31 compared to reference drugs.
For instance, it stopped the growth of VRSA strains with more potency than sorafenib (the prototype) and, as expected, much higher than vancomycin. […] Material and Methods

In the case of `O=C(Nc1ccc(-c2ccc(=O)[nH]n2)cc1)Nc1ccc(Cl)c(Cl)c1` [MY21, 1-(3,4-dichlorophenyl)-3-(4-(6-oxo-1,6-dihydropyridazin-3-yl)phenyl)urea], the “bacteriostatic or bactericidal (MBC compared with MIC)” value with Gram-positive bacteria is recorded as “bactericidal”. Still for that read-out and setting: for `O=C(Nc1ccc(Oc2ccc(=O)[nH]n2)cc1)Nc1ccc(Cl)c(Cl)c1` [MY24, 1-(3,4-dichlorophenyl)-3-(4-((6-oxo-1,6-dihydropyridazin-3-yl)oxy)phenyl)urea] the value was “bacteriostatic”. As for `O=C(Nc1ccc(Oc2ccc(=O)[nH]n2)cc1)Nc1ccc(Cl)c(C(F)(F)F)c1` [MY31, 1-(4-chloro-3-(trifluoromethyl)phenyl)-3-(4-((6-oxo-1,6-dihydropyridazin-3-yl)oxy)phenyl)urea], the “bacteriostatic or bactericidal (MBC compared with MIC)” value with Gram-positive bacteria was “bacteriostatic”. Besides, the “bacteriostatic activity relative to tested compounds and positive control antibiotics” value in the assay on Gram-positive strains was “highest bacteriostatic activity among the tested compounds”.
